# Experimental data as given in ChEMBL document CHEMBL1697781, “Assessment of the health effects of chemicals in humans: II. Construction of an adverse effects database for QSAR modeling” (Curr Drug Discov Technol, 2004).
# System: Hepatotoxicity
# Experiment: FDA HLAED, liver enzyme composite activity
# Conditions: human
# For GGT Increase - Index Value in this document: reference of the scale not given here.
# For LDH Increase - Index Value in this document: reference of the scale not given here.
SMILES,Composite Activity - Active,Composite Activity - Marginal,Composite Activity - Score
CC(C(=O)O)c1ccc(-c2ccccc2)c(F)c1 (configuration not stated) [FLURBIPROFEN],0,0,Inactive
CC(C)C(=O)Nc1ccc([N+](=O)[O-])c(C(F)(F)F)c1 [FLUTAMIDE],5,0,Active
C[C@@H]1C[C@H]2[C@@H]3C[C@H](F)C4=CC(=O)C=C[C@]4(C)[C@@]3(F)[C@@H](O)C[C@]2(C)[C@@]1(O)C(=O)SCF [FLUTICASONE],0,0,Inactive
COCCCC/C(=N\OCCN)c1ccc(C(F)(F)F)cc1 [FLUVOXAMINE],2,0,Active
O=C(O)P(=O)(O)O [FOSCARNET],5,0,Active
C[C@@H]1O[C@@H]1P(=O)(O)O [FOSFOMYCIN],0,0,Inactive
CCC(=O)O[C@@H](O[P@](=O)(CCCCc1ccccc1)CC(=O)N1C[C@H](C2CCCCC2)C[C@H]1C(=O)O)C(C)C [FOSINOPRIL],0,0,Inactive
O=C1NC(c2ccccc2)(c2ccccc2)C(=O)N1COP(=O)(O)O [FOSPHENYTOIN],0,0,Inactive

# Same assay, conditions: human, Liver
SMILES,Composite Activity - Active,Composite Activity - Marginal,Composite Activity - Score
CC(C)n1c(/C=C/C(O)CC(O)CC(=O)O)c(-c2ccc(F)cc2)c2ccccc21 (configuration not stated) [FLUVASTATIN],0,0,Inactive

# System: Hepatotoxicity
# Experiment: FDA HLAED, gamma-glutamyl transferase (GGT) increase
# Conditions: human
SMILES,GGT Increase - Activity Score,GGT Increase - Index Value,GGT Increase - Number of Reports
CC(C(=O)O)c1ccc(-c2ccccc2)c(F)c1 (configuration not stated) [FLURBIPROFEN],Inactive,0.9,>= 4
CC(C)C(=O)Nc1ccc([N+](=O)[O-])c(C(F)(F)F)c1 [FLUTAMIDE],Active,6.7,>= 4
C[C@@H]1C[C@H]2[C@@H]3C[C@H](F)C4=CC(=O)C=C[C@]4(C)[C@@]3(F)[C@@H](O)C[C@]2(C)[C@@]1(O)C(=O)SCF [FLUTICASONE],Inactive,0,< 4
CC(C)n1c(/C=C/C(O)CC(O)CC(=O)O)c(-c2ccc(F)cc2)c2ccccc21 (configuration not stated) [FLUVASTATIN],Inactive,0.7,>= 4
COCCCC/C(=N\OCCN)c1ccc(C(F)(F)F)cc1 [FLUVOXAMINE],Inactive,1.4,< 4
O=C(O)P(=O)(O)O [FOSCARNET],Active,36.3,< 4
C[C@@H]1O[C@@H]1P(=O)(O)O [FOSFOMYCIN],Inactive,0,< 4
CCC(=O)O[C@@H](O[P@](=O)(CCCCc1ccccc1)CC(=O)N1C[C@H](C2CCCCC2)C[C@H]1C(=O)O)C(C)C [FOSINOPRIL],Inactive,0.6,< 4
O=C1NC(c2ccccc2)(c2ccccc2)C(=O)N1COP(=O)(O)O [FOSPHENYTOIN],Inactive,0,< 4

# System: Hepatotoxicity
# Experiment: FDA HLAED, lactate dehydrogenase (LDH) increase
# Conditions: human
SMILES,LDH Increase - Activity Score,LDH Increase - Index Value,LDH Increase - Number of Reports
CC(C(=O)O)c1ccc(-c2ccccc2)c(F)c1 (configuration not stated) [FLURBIPROFEN],Inactive,0.2,< 4
CC(C)C(=O)Nc1ccc([N+](=O)[O-])c(C(F)(F)F)c1 [FLUTAMIDE],Active,8.4,>= 4
C[C@@H]1C[C@H]2[C@@H]3C[C@H](F)C4=CC(=O)C=C[C@]4(C)[C@@]3(F)[C@@H](O)C[C@]2(C)[C@@]1(O)C(=O)SCF [FLUTICASONE],Inactive,0,< 4
CC(C)n1c(/C=C/C(O)CC(O)CC(=O)O)c(-c2ccc(F)cc2)c2ccccc21 (configuration not stated) [FLUVASTATIN],Inactive,0,< 4
COCCCC/C(=N\OCCN)c1ccc(C(F)(F)F)cc1 [FLUVOXAMINE],Inactive,2.1,< 4
O=C(O)P(=O)(O)O [FOSCARNET],Active,48.4,>= 4
C[C@@H]1O[C@@H]1P(=O)(O)O [FOSFOMYCIN],Inactive,0,< 4
CCC(=O)O[C@@H](O[P@](=O)(CCCCc1ccccc1)CC(=O)N1C[C@H](C2CCCCC2)C[C@H]1C(=O)O)C(C)C [FOSINOPRIL],Inactive,0.6,< 4
O=C1NC(c2ccccc2)(c2ccccc2)C(=O)N1COP(=O)(O)O [FOSPHENYTOIN],Inactive,0,< 4

# System: Hepatotoxicity
# Experiment: FDA HLAED, alkaline phosphatase increase
# Conditions: human
SMILES,Alkaline Phosphatase Increase - Activity Score,Alkaline Phosphatase Increase - Index Value,Alkaline Phosphatase Increase - Number of Reports
CC(C(=O)O)c1ccc(-c2ccccc2)c(F)c1 (configuration not stated) [FLURBIPROFEN],Inactive,0.9,>= 4
CC(C)C(=O)Nc1ccc([N+](=O)[O-])c(C(F)(F)F)c1 [FLUTAMIDE],Active,16.8,>= 4
C[C@@H]1C[C@H]2[C@@H]3C[C@H](F)C4=CC(=O)C=C[C@]4(C)[C@@]3(F)[C@@H](O)C[C@]2(C)[C@@]1(O)C(=O)SCF [FLUTICASONE],Inactive,0,< 4
CC(C)n1c(/C=C/C(O)CC(O)CC(=O)O)c(-c2ccc(F)cc2)c2ccccc21 (configuration not stated) [FLUVASTATIN],Inactive,0.5,>= 4
COCCCC/C(=N\OCCN)c1ccc(C(F)(F)F)cc1 [FLUVOXAMINE],Inactive,2.7,>= 4
O=C(O)P(=O)(O)O [FOSCARNET],Active,181.6,>= 4
C[C@@H]1O[C@@H]1P(=O)(O)O [FOSFOMYCIN],Inactive,0,< 4
CCC(=O)O[C@@H](O[P@](=O)(CCCCc1ccccc1)CC(=O)N1C[C@H](C2CCCCC2)C[C@H]1C(=O)O)C(C)C [FOSINOPRIL],Inactive,0.3,< 4
O=C1NC(c2ccccc2)(c2ccccc2)C(=O)N1COP(=O)(O)O [FOSPHENYTOIN],Inactive,0,< 4

# System: Hepatotoxicity
# Experiment: FDA HLAED, serum glutamic oxaloacetic transaminase (SGOT) increase
# Conditions: human
SMILES,SGOT Increase - Activity Score,SGOT Increase - Index Value,SGOT Increase - Number of Reports
CC(C(=O)O)c1ccc(-c2ccccc2)c(F)c1 (configuration not stated) [FLURBIPROFEN],Inactive,0.9,>= 4
CC(C)C(=O)Nc1ccc([N+](=O)[O-])c(C(F)(F)F)c1 [FLUTAMIDE],Active,22.4,>= 4
C[C@@H]1C[C@H]2[C@@H]3C[C@H](F)C4=CC(=O)C=C[C@]4(C)[C@@]3(F)[C@@H](O)C[C@]2(C)[C@@]1(O)C(=O)SCF [FLUTICASONE],Inactive,0.8,< 4
CC(C)n1c(/C=C/C(O)CC(O)CC(=O)O)c(-c2ccc(F)cc2)c2ccccc21 (configuration not stated) [FLUVASTATIN],Inactive,1,>= 4
COCCCC/C(=N\OCCN)c1ccc(C(F)(F)F)cc1 [FLUVOXAMINE],Active,8.9,>= 4
O=C(O)P(=O)(O)O [FOSCARNET],Active,121.1,>= 4
C[C@@H]1O[C@@H]1P(=O)(O)O [FOSFOMYCIN],Inactive,0,< 4
CCC(=O)O[C@@H](O[P@](=O)(CCCCc1ccccc1)CC(=O)N1C[C@H](C2CCCCC2)C[C@H]1C(=O)O)C(C)C [FOSINOPRIL],Inactive,1.5,>= 4
O=C1NC(c2ccccc2)(c2ccccc2)C(=O)N1COP(=O)(O)O [FOSPHENYTOIN],Inactive,0,< 4

# System: Hepatotoxicity
# Experiment: FDA HLAED, serum glutamic pyruvic transaminase (SGPT) increase
# Conditions: human
SMILES,SGPT Increase - Activity Score,SGPT Increase - Index Value,SGPT Increase - Number of Reports
CC(C(=O)O)c1ccc(-c2ccccc2)c(F)c1 (configuration not stated) [FLURBIPROFEN],Inactive,0.9,>= 4
CC(C)C(=O)Nc1ccc([N+](=O)[O-])c(C(F)(F)F)c1 [FLUTAMIDE],Active,20.2,>= 4
C[C@@H]1C[C@H]2[C@@H]3C[C@H](F)C4=CC(=O)C=C[C@]4(C)[C@@]3(F)[C@@H](O)C[C@]2(C)[C@@]1(O)C(=O)SCF [FLUTICASONE],Inactive,0.8,< 4
CC(C)n1c(/C=C/C(O)CC(O)CC(=O)O)c(-c2ccc(F)cc2)c2ccccc21 (configuration not stated) [FLUVASTATIN],Inactive,1,>= 4
COCCCC/C(=N\OCCN)c1ccc(C(F)(F)F)cc1 [FLUVOXAMINE],Active,8.9,>= 4
O=C(O)P(=O)(O)O [FOSCARNET],Active,72.6,>= 4
C[C@@H]1O[C@@H]1P(=O)(O)O [FOSFOMYCIN],Inactive,0,< 4
CCC(=O)O[C@@H](O[P@](=O)(CCCCc1ccccc1)CC(=O)N1C[C@H](C2CCCCC2)C[C@H]1C(=O)O)C(C)C [FOSINOPRIL],Inactive,1.5,>= 4
O=C1NC(c2ccccc2)(c2ccccc2)C(=O)N1COP(=O)(O)O [FOSPHENYTOIN],Inactive,0,< 4
